Source: US20120009280A1, “METHOD OF REDUCING THE RATE OF DEGRADATION OF A BIOLOGICAL MATERIAL” (Bio-Energy Ingredients Limited, priority 2009, published 2012)

How the values were obtained:
[1] = test system: mould; experiment: Mould count of spent brewer's / wet distiller's grains stored at ambient temperature; format: cell-based
Description: Samples of Portion 1 (“AR”), Portion 3 (“SO”) and Portion 5 (“SH”) were then delivered to a microbiological testing facility about 15 kilometres from the treatment laboratory. Each was tested for initial total microbial, yeast and mould counts, respectively.
Separate untreated samples were similarly stored under insect-proof screens at ambient temperature for seven days (as shown in Tables 1 and 2). During the trial period the ambient temperature ranged from 11 to 33 degrees C.
(§1) The free moisture content on the initial spent brewer's grains was determined to be 78.1% m/m. After exposure to the environment for seven days, all of the samples were tested at a South African National Accreditation System (SANAS) approved microbiological testing facility. Each was tested for total micro-organism, yeast and mould counts to determine the affect of the various treatments. A similar procedure to that described in K. A. Rosentrater et al, Food Bioprocess Technol (2008) was used for the microbiological evaluation.
At the laboratory, the samples were thoroughly mixed and initially split into a first portion (Portion 1) and a second portion (Portion 2). Portion 1 was left untreated. A sample of Portion 1, was delivered immediately to a microbiological testing facility about 15 kilometres away from the treatment laboratory and was tested for initial total microbial, yeast and mould counts, respectively. No water removal prior to treatment was done in this experiment as was the case in Example 8 wherein a similar wet material was partially dewatered by pressing and the residue treated with 10% (w/w/) calcium oxide.
Samples from Portion 2 were subjected to treatment with varying amounts of a powdered, commercially-available calcium oxide containing approximately 94% calcium oxide (CaO) as shown in Table 32. […] The samples were stored in batches (according to the calcium oxide treatment) under insect-proof screens at ambient temperature for fifty six days. Separate untreated samples were similarly stored under insect-proof screens at ambient temperature for a total of 56 days. During the trial period the ambient temperature ranged from 10 to 30 degrees C. As this period was the southern hemisphere spring/early summer, the humidity as well as ambient temperatures varied widely.
as §1, with “79.4%” for “78.1%”
Samples from each treatment were drawn every seven days. No further calcium oxide treatment or agitation took place after the initial mix. In each case the entire sample was isolated and delivered to the microbiological testing facility.
The calcium oxide treatment trial described in Example 9 wherein wet distiller's grains were treated with 2.5%, 5% and 10.0% calcium oxide, respectively, versus untreated material was repeated using lower doses of calcium oxide. In this trial the same source of wet distiller's grains (again with now partial water removal prior to treatment) was treated. Also, the same protocol as described in Example 9 was applied, but at lower doses of calcium oxide i.e. 0.5%, 1.0%, 1.5%, 2.0% and 2.5%, respectively, versus untreated material.
In this trial the same source of wet distiller's grains (again with now partial water removal prior to treatment) was treated. Also, the same protocol as described in Example 9 was applied.

[2] = pH of suspensions of grain samples in distilled water or PBS; conditions: 1% (w/w) in distilled water
Description: The untreated sample (A) was compared visually against the corresponding quicklime-treated sample (B).
On Day 7, 10 g amounts of each sample were suspended in either 90 ml PBS or 90 ml sterile distilled water and shaken for 10 minutes. The pH of each suspension was then measured and compared.
On Day 9, 10 g of each sample was suspended in 90 ml PBS and shaken for 10 minutes. The pH was measured.

[3] = test system: yeast; experiment: Yeast count of spent brewer's / wet distiller's grains stored at ambient temperature; format: cell-based

## [Ca+2].[O-]CC(O)CO.[O-]CC(O)CO [Ca-DGO granules]
[1]; dose 10% (w/w), week 0
  Mould Count: <10 cfu/gram
[1]; dose 10% (w/w), week 1
  Mould Count: <10 cfu/gram
[1]; dose 10% (w/w), week 2
  Mould Count: <10 cfu/gram
[1]; dose 10% (w/w), week 3
  Mould Count: <10 cfu/gram
[1]; dose 10% (w/w), week 4
  Mould Count: <10 cfu/gram
[1]; dose 10% (w/w), week 5
  Mould Count: <10 cfu/gram
[1]; dose 10% (w/w), week 6
  Mould Count: <10 cfu/gram
[1]; dose 10% (w/w), week 7
  Mould Count: 400 cfu/gram
[1]; dose 10% (w/w), week 8
  Mould Count: 250 cfu/gram
[1]; dose 10% (w/w), week 9
  Mould Count: <10 cfu/gram
[1]; dose 15% (w/w), week 0
  Mould Count: <10 cfu/gram
[1]; dose 15% (w/w), week 1
  Mould Count: <10 cfu/gram
[1]; dose 15% (w/w), week 2
  Mould Count: <10 cfu/gram
[1]; dose 15% (w/w), week 3
  Mould Count: <10 cfu/gram
[1]; dose 15% (w/w), week 4
  Mould Count: <10 cfu/gram
[1]; dose 15% (w/w), week 5
  Mould Count: <10 cfu/gram
[1]; dose 15% (w/w), week 6
  Mould Count: <10 cfu/gram
[1]; dose 15% (w/w), week 7
  Mould Count: <10 cfu/gram
[1]; dose 15% (w/w), week 8
  Mould Count: <10 cfu/gram
[1]; dose 15% (w/w), week 9
  Mould Count: <10 cfu/gram
[2]; dose 10% (w/w), week 0
  pH: 10.2
[2]; dose 10% (w/w), week 1
  pH: 9.87
[2]; dose 10% (w/w), week 2
  pH: 7.09
[2]; dose 10% (w/w), week 3
  pH: 7.90
[2]; dose 10% (w/w), week 4
  pH: 8.89
[2]; dose 10% (w/w), week 5
  pH: 6.83
[2]; dose 10% (w/w), week 6
  pH: 8.93
[2]; dose 10% (w/w), week 7
  pH: 7.24
[2]; dose 10% (w/w), week 8
  pH: 8.63
[2]; dose 10% (w/w), week 9
  pH: 8.96
[2]; dose 15% (w/w), week 0
  pH: 11.53
[2]; dose 15% (w/w), week 1
  pH: 11.35
[2]; dose 15% (w/w), week 2
  pH: 6.61
[2]; dose 15% (w/w), week 3
  pH: 8.03
[2]; dose 15% (w/w), week 4
  pH: 8.54
[2]; dose 15% (w/w), week 5
  pH: 7.20
[2]; dose 15% (w/w), week 6
  pH: 9.25
[2]; dose 15% (w/w), week 7
  pH: 7.21
[2]; dose 15% (w/w), week 8
  pH: 9.17
[2]; dose 15% (w/w), week 9
  pH: 8.95
[3]; dose 10% (w/w), week 0
  Yeast Count: <10 cfu/gram
[3]; dose 10% (w/w), week 1
  Yeast Count: <10 cfu/gram
[3]; dose 10% (w/w), week 2
  Yeast Count: <10 cfu/gram
[3]; dose 10% (w/w), week 7
  Yeast Count: <10 cfu/gram
[3]; dose 10% (w/w), week 8
  Yeast Count: <10 cfu/gram
[3]; dose 15% (w/w), week 0
  Yeast Count: <10 cfu/gram
[3]; dose 15% (w/w), week 1
  Yeast Count: <10 cfu/gram
[3]; dose 15% (w/w), week 2
  Yeast Count: <10 cfu/gram
[3]; dose 15% (w/w), week 3
  Yeast Count: <10 cfu/gram
[3]; dose 15% (w/w), week 4
  Yeast Count: <10 cfu/gram
[3]; dose 15% (w/w), week 5
  Yeast Count: 30 cfu/gram
[3]; dose 15% (w/w), week 6
  Yeast Count: <10 cfu/gram
[3]; dose 15% (w/w), week 7
  Yeast Count: <10 cfu/gram
[3]; dose 15% (w/w), week 8
  Yeast Count: <10 cfu/gram
[3]; dose 15% (w/w), week 9
  Yeast Count: <10 cfu/gram

## [Ca+2].[O-2] [CaO powder]
[1]; dose 5% (w/w), week 0
  Mould Count: <10 cfu/gram
[1]; dose 5% (w/w), week 1
  Mould Count: <10 cfu/gram
[1]; dose 5% (w/w), week 2
  Mould Count: <10 cfu/gram
[1]; dose 5% (w/w), week 3
  Mould Count: <10 cfu/gram
[1]; dose 5% (w/w), week 4
  Mould Count: <10 cfu/gram
[1]; dose 5% (w/w), week 5
  Mould Count: <10 cfu/gram
[1]; dose 5% (w/w), week 6
  Mould Count: <10 cfu/gram
[1]; dose 5% (w/w), week 7
  Mould Count: <10 cfu/gram
[1]; dose 5% (w/w), week 8
  Mould Count: <10 cfu/gram
[1]; dose 5% (w/w), week 9
  Mould Count: <10 cfu/gram
[1]; dose 10% (w/w), week 0
  Mould Count: <10 cfu/gram
[1]; dose 10% (w/w), week 1
  Mould Count: <10 cfu/gram
[1]; dose 10% (w/w), week 2
  Mould Count: <10 cfu/gram
[1]; dose 10% (w/w), week 3
  Mould Count: <10 cfu/gram
[1]; dose 10% (w/w), week 4
  Mould Count: <10 cfu/gram
[1]; dose 10% (w/w), week 5
  Mould Count: <10 cfu/gram
[1]; dose 10% (w/w), week 6
  Mould Count: <10 cfu/gram
[1]; dose 10% (w/w), week 7
  Mould Count: 3500 cfu/gram
[1]; dose 10% (w/w), week 8
  Mould Count: <10 cfu/gram
[1]; dose 10% (w/w), week 9
  Mould Count: <10 cfu/gram
[2]; dose 5% (w/w), week 0
  pH: 12.93
[2]; dose 5% (w/w), week 1
  pH: 12.05
[2]; dose 5% (w/w), week 2
  pH: 11.19
[2]; dose 5% (w/w), week 3
  pH: 7.82
[2]; dose 5% (w/w), week 4
  pH: 9.23
[2]; dose 5% (w/w), week 5
  pH: 7.55
[2]; dose 5% (w/w), week 6
  pH: 9.23
[2]; dose 5% (w/w), week 7
  pH: 7.28
[2]; dose 5% (w/w), week 8
  pH: 7.60
[2]; dose 5% (w/w), week 9
  pH: 8.45
[2]; dose 10% (w/w), week 0
  pH: 13.12
[2]; dose 10% (w/w), week 1
  pH: 12.56
[2]; dose 10% (w/w), week 2
  pH: 12.38
[2]; dose 10% (w/w), week 3
  pH: 12.36
[2]; dose 10% (w/w), week 4
  pH: 12.20
[2]; dose 10% (w/w), week 5
  pH: 12.12
[2]; dose 10% (w/w), week 6
  pH: 11.92
[2]; dose 10% (w/w), week 7
  pH: 7.56
[2]; dose 10% (w/w), week 8
  pH: 8.38
[2]; dose 10% (w/w), week 9
  pH: 11.77
[3]; dose 5% (w/w), week 0
  Yeast Count: <10 cfu/gram
[3]; dose 5% (w/w), week 1
  Yeast Count: <10 cfu/gram
[3]; dose 5% (w/w), week 2
  Yeast Count: <10 cfu/gram
[3]; dose 5% (w/w), week 3
  Yeast Count: <10 cfu/gram
[3]; dose 5% (w/w), week 4
  Yeast Count: <10 cfu/gram
[3]; dose 5% (w/w), week 5
  Yeast Count: <10 cfu/gram
[3]; dose 5% (w/w), week 6
  Yeast Count: <10 cfu/gram
[3]; dose 5% (w/w), week 7
  Yeast Count: <10 cfu/gram
[3]; dose 5% (w/w), week 8
  Yeast Count: <10 cfu/gram
[3]; dose 5% (w/w), week 9
  Yeast Count: <10 cfu/gram
[3]; dose 10% (w/w), week 0
  Yeast Count: <10 cfu/gram
[3]; dose 10% (w/w), week 1
  Yeast Count: <10 cfu/gram
[3]; dose 10% (w/w), week 2
  Yeast Count: <10 cfu/gram
[3]; dose 10% (w/w), week 7
  Yeast Count: <10 cfu/gram
[3]; dose 10% (w/w), week 8
  Yeast Count: <10 cfu/gram
